From paper PMC7913210 (Pharmaceutics, 2021)

Assays:
[1] = Parent-metabolite PK model (non-linear mixed-effect modeling) after SC LHA administration; format: in vivo, Sprague-Dawley rats
Method: In addition, a combined transit model with first-order absorption was evaluated to better describe absorption phase. In the transit model, the optimal number of transit compartments (NTR) and the mean transit time (MTT) were estimated. The transit model introduced three parameters—Ktr, NTR, and MTT. Two of these three parameters were estimated. The relationship of these parameters is shown in the following equation: MTT= (NTR+1)/Ktr The inter-individual variability (IIV) was assessed using an exponential variability model as following equation: Pi=Ptv ×exp (ETA) where Pi represents the value of the individual PK parameter, Ptv is a typical value for P, and ETA indicates an interindividual random effect with the mean of zero and variance of ω^2. Residual random variability (ε) was calculated using a proportional error model for the three types of observations. Optimal model selection was guided by changes in diagnostic values including twice the negative log like (−2LL), Akaike information Criterion (AIC), Baysian Information Criteria (BIC), visual inspection of various diagnostic plots (goodness of fit plot), and precision of parameter estimates. The visual predictive check (VPC) and boot strap analysis was conducted for non-parametric evaluation of the model. Graphical diagnostics including basic goodness-of-fit plot and other accessory plots were used for single run-based diagnostics during model development. For the final model, the robustness and predictive performance were evaluated using multiple run-based diagnostics such as bootstrapping. A bootstrap procedure was conducted with a total of 1000 bootstrap-resampled datasets from the original dataset. Bootstrap results of median and 95% confidence intervals (CIs, […]) were compared with final parameter estimates. The 95% confidence intervals of parameters obtained from this step were compared with final parameter estimates.

[2] = cited from earlier work
[3] = SC LHA, rats, model estimate (fixed effect)

Compound	CLm2/F, Apparent Metabolite clearance ([1]; SC LHA, rats, second metabolite (GX), model estimate)	potency as anti-arrhythmic agent relative to lidocaine [2]	Vmax, Maximum rate of reaction ([1]; SC LHA, rats, Michaelis-Menten elimination of lidocaine, model estimate)	MTT, Mean Transit Time [1, 3]	Ntr, Number of transit compartments [1, 3]	Fm2, Fraction of the first metabolite converted to second metabolite ([1]; SC LHA, rats, MEGX to GX, model estimate)	CLm1/F, Apparent Metabolite (MEGX) clearance [1, 3]	MEGX converted into GX ([1]; model prediction, hyaluronic acid pre-incorporated lidocaine injected subcutaneously)
Cc1cccc(C)c1NC(=O)CN [GX, glycylxylidide]	1.09 L/h	~10%						
CCN(CC)CC(=O)Nc1c(C)cccc1C [Lidocaine, reference compound]			423,962.94 nmol/h	0.64 h	4.97			
CCNCC(=O)Nc1c(C)cccc1C [MEGX, monoethylglycylxylidide]		approximately 80%				0.47	14.94 L/h	about 47%
